The values that follow come from ChEMBL document CHEMBL1157872, “Theoretical models of pentamidine analogs activity based on their DNA minor groove complexes” (Eur J Med Chem, 2010).

In general, ΔTm refers to the change in melting temperature against a reference sample.

Test [1] concerns Nucleic Acid. The test is described as follows: Binding affinity to d(CGCGATATCGCG)2 dodecamer assessed as change in melting temperature. Type of test: nucleic-acid assay.
Test [2] concerns Nucleic Acid.

With `N=C(N)c1ccc(/N=N/Nc2ccc(C(=N)N)cc2)cc1`, in the test with Nucleic Acid [1], the ΔTm came to 11.9 °C. With `Cn1cc(NC(=O)c2cc(NC(=O)CNC(=N)N)cn2C)cc1C(=O)NCCC(=N)N`, the ΔTm in the test with Nucleic Acid [2] amounted to 31 °C. As to `N=C(N)c1ccc(NCCNCCNc2ccc(C(=N)N)cc2)cc1`, the figures for the shift in melting temperature (ΔTm) in the test with Nucleic Acid [2] and with Nucleic Acid [1] were 5.84 °C and 5.48 °C, respectively.

In the case of `COc1cc(C(=N)N)cc(OC)c1OCCCCCOc1c(OC)cc(C(=N)N)cc1OC`, the ΔTm was 2.35 °C with Nucleic Acid [2] and 2.55 °C in the test on Nucleic Acid [1].

In the case of `N=C(N)c1ccc(-c2ccc(-c3ccc(C(=N)N)cc3)o2)cc1`, in the test on Nucleic Acid [2], the ΔTm was 11.7 °C. Take `N=C(NC1CCCCC1)c1ccc(OCCOCCOc2ccc(C(=N)NC3CCCCC3)cc2)cc1`: the ΔTm came out at 5.08 °C in the test with Nucleic Acid [2] and 4.3 °C in the test with Nucleic Acid [1]. The matching figures for `CCCCNC(=N)c1ccc(OCCOCCOc2ccc(C(=N)NCCCC)cc2)cc1`: 3.84 °C and 3.3 °C. Turning to `CCCNC(=N)c1ccc(-c2ccc(-c3ccc(C(=N)NCCC)cc3)o2)cc1`, the ΔTm in the test on Nucleic Acid [2] is 13 °C. Take `c1cc(-c2ccc(-c3ccc(C4=NCCN4)cc3)o2)ccc1C1=NCCN1`: in the test with Nucleic Acid [2], the ΔTm was found to be 11.4 °C. As for `N=C(N)c1ccc(OCCCCCOc2ccc(C(=N)N)cc2)cc1`, the thermal shift (ΔTm) came out at 4.65 °C in the test on Nucleic Acid [2] and 6.58 °C with Nucleic Acid [1].

Regarding `N=C(N)c1ccc(OCCOCCOc2ccc(C(=N)N)cc2)cc1`, the ΔTm was 2.92 °C with Nucleic Acid [2] and 4.2 °C in the test on Nucleic Acid [1]. In the case of `CCN1CCN=C1c1ccc(-c2ccc(-c3ccc(C4=NCCN4CC)cc3)o2)cc1`, the ΔTm with Nucleic Acid [2] came to 1.9 °C.

In the case of `CN(CCCCCN(C)c1ccc(C(=N)N)cc1)c1ccc(C(=N)N)cc1`, the shift in melting temperature (ΔTm) with Nucleic Acid [2] amounted to 1.17 °C; in the test with Nucleic Acid [1], 1.1 °C.
